This is an account of results in patent publication US8252807B2, “Methods of inhibiting the interaction between S100 and the receptor for advanced glycation end-products” (Board of Regents, The University of Texas System, priority 2007, dated 2012).

The target in the assay is T1, S100P (Homo sapiens, UniProt P25815).
T1 construct: full-length human S100P cDNA (NM_005980) was cloned into the pTrcHis2 vector; His tag; made in house
Briefly: S100P binding to cromolyn using affinity chromatography. The note with it: cromolyn coupled to AF-TOYOPEARL; EGTA elution; control column did not retain. As for the experimental part:
Cromolyn was coupled with the amino group of AF-amino TOYOPEARL to generate a cromolyn affinity column. A negative control column was prepared by blocking the amino group. Purified S100P was added to both columns, which were then washed extensively. Protein was eluted from the columns using EGTA and subjected to sodium dodecylsulfate polyacrylamide gel electrophoresis and staining with Commassie blue. Lane 1 of the gel is the molecular weight marker; lane 2 is the eluate from the control column; and lane 3 is the eluate from the cromolyn column (arrow, S100P). The gel shown is one of three independent experiments.
Cromolyn was coupled to AF-TOYOPEARL resin as described in Shishibori, et al., Three distinct anti-allergic drugs, amlexanox, cromolyn and tranilast, bind to S100A 12 and S100A13 of the S100 protein family; Biochem. J. 1999 Mar. 15; 338 (Pt 3):583-9. Briefly, 0.1 grams of cromolyn was dissolved in 1 mL of N,N-dimethylformamide and added to 7 mL (5 grams wet mass) AF-TOYOPEARL. Next, 0.5 grams of N-ethyl-N-(3-dimethylaminopropyl) carbodiimide hydrochloride, suspended in 10 mL of N,N-dimethylformamide, was added to the cromolyn+AF-TOYOPEARL slurry. The pH was adjusted to 5.0, and the slurry was incubated with gentle shaking for 48 hours at 25° C. As a negative control, a column was prepared by blocking the amino group of AF-TOYOPEARL with sodium acetate and acetic anhydride. […]

For the molecule `O=C(O)c1cc(=O)c2c(OCC(O)COc3cccc4oc(C(=O)O)cc(=O)c34)cccc2o1` [cromolyn, disodium 1,3-bis[(2′-carboxylatochromon-5′-yl)oxy]-2-hydroxypropane], the “S100P retained by cromolyn affinity column” value was “retained S100P”.
